Reference: patent US20110293600A1, “Anticancer Composition Comprising Antitumor Agent and Substance Having Inhibitory Effects on L1CAM Activity and Expression” (KOREA RESEARCH INSTITUTE OF BIOSCIENCE AND BIOTECHNOLOGY, priority 2008, published 2011)

What was measured:
[1] = tested on: SCK cells subcutaneously transplanted; experiment: Cancer growth in mouse xenograft model; type: in vivo, Nude mice Balb/c nu/nu; details: Example 3, FIG. 2, A10-A3 10 mg/kg three times per week, cisplatin 3 mg/kg twice per week
Procedure: Nude mice Balb/c nu/nu were purchased via Central Lab. Animal Inc. from Japan SLC. The mice were 6 to 8 weeks old, weighed 18 to 22 g and acclimated for one week in a lab of the Korean Research Institute of Bioscience and Biotechnology. SCK cells (3×10^7) were subcutaneously transplanted into 40 mice, and were randomly divided into four groups when grown to a tumor mass having a size of 100 to 200 mm^3 after one week. A10-A3 was administered to the mice at a dose of 10 mg/kg three times per week. Cisplatin was administered to the mice at a dose of 3 mg/kg twice per week. As the control group, mIgG was administered at the same level, instead of A10-A3 and saline was administered at the same level, instead of cisplatin. The weight of nude mice and tumors were measured three times per week.

[2] = tested on: L1CAM protein in cholangiocarcinoma cell lines (SCK); experiment: Detection of protein expression of L1CAM using Western blotting; type: cell-based; details: SCK transduced with siRNA, cultured 72 hours; compared to siRNA non-specific for L1CAM; FIG. 5(A) lower
Procedure: In order to knock down expression of L1CAM in cholangiocarcinoma cell lines (SCK), the cells were transduced with siRNA (5′-[…]-3′, Sequence ID No. 1) specific for L1CAM and siRNA (5′-CAGTCGCGTTTGCGACTGG-3′, Sequence ID No. 2) non-specific for L1CAM and then cultured for 72 hours and expression of L1CAM was detected in protein level using Western blotting. In order to isolate the total protein of cell lines treated with siRNA, the cell lines were treated with 500 μl of cell lysis solution (RIPA buffer), and the proteins thus obtained were isolated in 10% SDS-PAGE, transferred to a nitrocellulose membrane and subjected to Western blotting. The nitrocellulose membrane was allowed to react in PBST (PBS+0.1% Tween 20) buffer containing 5% skim milk for one hour and washed two or more times with the PBST buffer. Anti-L1CAM antibody (A10-A3) was added as a primary antibody to the reacted nitrocellulose membrane, followed by allowing to react for 2 hours. The resulting membrane was washed with the PBST buffer five times and reacted with anti-mouse IgG HRP (horseradish peroxidase) conjugate (1:5000 Sigma) for one hour. The reaction solution was washed five times with the PBST buffer and was colored with enhanced chemiluminescence reagent (ECL) (Amersham biosciences) as a detection reagent.

[3] = tested on: L1CAM mRNA in cholangiocarcinoma cell lines (SCK); experiment: Detection of mRNA expression of L1CAM by RT-PCR; type: cell-based; details: SCK transduced with siRNA, cultured 72 hours; compared to siRNA non-specific for L1CAM; FIG. 5(A) upper
Procedure: In order to knock down expression of L1CAM in cholangiocarcinoma cell lines (SCK), the cells were transduced with siRNA (5′-[…]-3′, Sequence ID No. 1) specific for L1CAM and siRNA (5′-CAGTCGCGTTTGCGACTGG-3′, Sequence ID No. 2) non-specific for L1CAM and then cultured for 72 hours. In order to isolate the total RNA of the cultured cholangiocarcinoma cells, the cells were treated with a 1 ml trizol reagent (Invitrogen, Inc.) at room temperature for 5 minutes. 0.2 ml of chloroform was added to the cells, and the mixture was violently shaken about 15 times and allowed to react at room temperature for 3 minutes. The resulting solution was centrifuged at 4° C. and 14,000 rpm for […], 400 μl of the supernatant was transferred to another tube and the same amount of isopropanol was added to the residue and the mixture was allowed to react at room temperature for 10 minutes. The reaction solution was centrifuged at 4° C. at 14,000 rpm for 15 minutes, the supernatant was discarded, and the residue was washed with 75% ethanol. oligo(d)T, dNTP, RNase inhibitor and reverse transcriptase were added to 2 ug of the RNA thus extracted and the mixture was allowed to react at 42° C. for one hour to synthesize cDNA. […]

Row | Molecule | proliferation inhibition (tumor growth) [1] | total amount of protein expressed (L1CAM) [2] | total amount of L1CAM expressed (mRNA) [3]
1 | N.N.[Cl][Pt][Cl] [cisplatin] | about 30% |  | 
2 | siRNA specific for L1CAM: siRNA (5′-GCCAATGCCTACATCTACGTT-3′, Sequence ID No. 1) specific for L1CAM (listed as DNA, chemistry not given here) |  | decrease | decrease
